Earlier results as cited in patent US20230157963A1, “SOLID ORAL BEADS OF FUNCTIONAL INGREDIENTS AND METHODS OF MAKING THE SAME” (Nulixir Inc., priority 2021, published 2023).

Details: categorization at pH=7 unless stated otherwise; reference phases water and n-octanol

| Compound | log P |
| --- | --- |
| COc1cc2c(c(OC)c1OC)-c1c(cc3c(c1OC)OCO3)CC(C)C(C)C2 (single isomer, unassigned; (-)) [(−)-schisandrin B] | ~4 |
| COc1cc(/C=C/c2ccccc2)oc(=O)c1 [5,6-dehydrokawain] | ~2.9 |
| COC1=CC(=O)OC(/C=C/c2ccc(OC)cc2)C1 (stereo not drawn) [5,6-dihydroyangonin] | ~2.5 |
| CC1=C(CO)C(=O)O[C@@H]([C@@H](C)[C@H]2CC[C@H]3[C@@H]4C[C@H](Cl)[C@]5(O)[C@@H](O)C=CC(=O)[C@]5(C)[C@H]4CC[C@]23C)C1 [6a-chloro-5b-hydroxywithaferin A] | ~3.2 |
| COC1=CC(=O)O[C@@H](CCc2ccc3c(c2)OCO3)C1 [7,8-dihydromethysticin] | ~2.2 |
| COc1ccc(CCc2cc(OC)cc(=O)o2)cc1 [7,8-dihydroyangonin] | ~2.9 |
| COc1cc(/C=C\c2ccc(OC)c(O)c2)oc(=O)c1 [11-hydroxyyangonin] | ~2.2 |
| COc1cc2c(c(OC)c1OC)-c1c(cc(OC)c(OC)c1OC)C[C@](C)(O)[C@@H](C)C2 [(+)-schisandrin] | ~5 |
| COc1cc2c(c(OC)c1OC)-c1c(cc(OC)c(OC)c1OC)C[C@H](C)[C@H](C)C2 [(−)-schisandrin A] | ~3.6 |
| COc1c2c(cc3c1-c1c(cc4c(c1OC)OCO4)C[C@H](C)[C@H](C)C3)OCO2 [(−)-schisandrin C] | ~3.5 |
| CC(C)=C[C@@H]1CO[C@]23C[C@]4(CO2)[C@H](CC[C@@H]2[C@@]5(C)CC[C@H](O[C@@H]6OC[C@H](O)[C@H](O[C@@H]7O[C@H](CO)[C@@H](O)[C@H](O)[C@H]7O)[C@H]6O[C@@H]6O[C@@H](CO)[C@H](O)[C@H]6O)C(C)(C)[C@@H]5CC[C@]24C)[C@H]3[C@@]1(C)O [bacopasaponin C] | ~2 |
| CC(C)=C[C@H]1C[C@](C)(O)[C@@H]2[C@H]3CC[C@@H]4[C@@]5(C)CC[C@H](O[C@@H]6OC[C@H](O)[C@H](O[C@@H]7O[C@H](CO)[C@@H](O)[C@H](O)[C@H]7O)[C@H]6O[C@@H]6O[C@@H](CO)[C@H](O)[C@H]6O)C(C)(C)[C@@H]5CC[C@@]4(C)[C@@]34CO[C@@]2(C4)O1 [bacopaside X] | ~2.2 |
| CC(C)=C[C@H]1C[C@](C)(O)[C@H]2[C@H]3CC[C@@H]4[C@@]5(C)CC[C@H](O[C@@H]6O[C@H](CO)[C@@H](O)[C@H](O[C@@H]7O[C@H](CO)[C@@H](O)[C@H](O)[C@H]7O)[C@H]6O[C@@H]6O[C@@H](CO)[C@H](O)[C@H]6O)C(C)(C)[C@@H]5CC[C@@]4(C)[C@@]34CO[C@@]2(C4)O1 [bacoside A3] | ~2.1 |
| CC(C)=CCC[C@](C)(O[C@@H]1O[C@H](CO[C@@H]2O[C@H](CO)[C@@H](O)[C@H](O)[C@H]2O)[C@@H](O)[C@H](O)[C@H]1O)[C@H]1CC[C@]2(C)[C@@H]1[C@H](O)C[C@@H]1[C@@]3(C)CC[C@H](O[C@@H]4O[C@H](CO)[C@@H](O)[C@H](O)[C@H]4O[C@@H]4O[C@H](CO)[C@@H](O)[C@H](O)[C@H]4O)C(C)(C)[C@@H]3CC[C@]12C [ginsenoside rb1] | ~−1 |
| CC(C)=CCC[C@](C)(O[C@@H]1O[C@H](CO)[C@@H](O)[C@H](O)[C@H]1O)[C@H]1CC[C@]2(C)[C@@H]1[C@H](O)C[C@@H]1[C@@]3(C)CC[C@H](O)C(C)(C)[C@@H]3[C@@H](O[C@@H]3O[C@H](CO)[C@@H](O)[C@H](O)[C@H]3O)C[C@]12C [ginsenoside rg1] | ~0.8 |
| COc1ccc(C23C=CC(O)CC2N(C)CC3)cc1OC (stereo not drawn) [mesembrenol] | ~2.4 |
| COc1ccc([C@@]23C=CC(=O)C[C@@H]2N(C)CC3)cc1OC [mesembrenone] | ~1.3 |
| COc1ccc([C@@]23CCC(=O)C[C@@H]2N(C)CC3)cc1OC [mesembrine] | ~1.5 |
| COc1nc2c(c(=O)n1C)n(C)c(=O)n2C [methylliberine] | ~−0.083 |
| CC(=O)OC1C=CC(=O)N(C(=O)CCc2ccccc2)C1 (stereo not drawn) [pipermethystine] | ~1.8 |
| COc1cc([C@H]2Oc3cc(O)c4c(=O)c(O)c(-c5ccc(O)cc5)oc4c3O[C@@H]2CO)ccc1O [rhodiolin] | ~2 |
| OC[C@H]1O[C@@H](OCCc2ccc(O)cc2)[C@H](O)[C@@H](O)[C@@H]1O [rhodosin, salidroside] | ~−1 |
| COc1cc2c(c(OC)c1OC)-c1c(cc(OC)c(OC)c1OC)C[C@](C)(O)[C@@H](C)C2 [schisandrol A] | ~3.4 |
| N#C[C@@]1(O[C@@H]2O[C@H](CO)[C@@H](O)[C@H](O)[C@H]2O)C=C[C@@H](O)C1 [tetraphyllin B] | ~−2.5 |
| (R)-kawain | ~2.7 |
| bacopaside B | ~2.8 |
| hericerin | ~6.4 |
| herinacine A | ~2.5 |
| schisandroside C | ~1.6 |
| tortuosomine | ~3 |
